Measured values from patent US12077503B2, “Substituted cyclic amides and their use as herbicides” (FMC CORPORATION, priority 2015, dated 2024).
Where two headings read alike, the source gives them in different places.

Tests used:
Type in all cases: in vivo
[1] = test system: Kochia (Kochia scoparia); test: Test A preemergence; details: Bassia scoparia, pre-emergence, 240 h; for pest or weed control at 125 g/ha: 125 g ai/ha, 0 to 100 scale where 0 is no effect and 100 is complete control; for pest or weed control at 500 g/ha: 500 g ai/ha
Procedure, shortened: (§1)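 Visual injury scores from 0, no effect, to 100, complete control, were assigned versus untreated controls roughly 10 d after treatment in the greenhouse. Test chemicals, formulated with surfactant in a non-phytotoxic solvent, were applied to planted seeds as a preemergence soil spray or postemergence to one- to two-leaf plants 2 to 10 cm tall, in loam–sand soil.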

[2] = test system: barnyardgrass (Echinochloa crus-galli); test: Test A preemergence; details: Echinochloa crus-galli, pre-emergence, 240 h; for pest or weed control at 125 g/ha: 125 g ai/ha, 0 to 100 scale where 0 is no effect and 100 is complete control; for pest or weed control at 500 g/ha: 500 g ai/ha
Procedure, shortened: as §1

[3] = test system: giant foxtail (Setaria faberii); test: Test A preemergence; details: Setaria faberi, pre-emergence, 240 h; for pest or weed control at 125 g/ha: 125 g ai/ha, 0 to 100 scale where 0 is no effect and 100 is complete control; for pest or weed control at 500 g/ha: 500 g ai/ha
Procedure, shortened: as §1

[4] = test system: pigweed (Amaranthus retroflexus); test: Test A preemergence; details: Amaranthus retroflexus, pre-emergence, 240 h; for pest or weed control at 125 g/ha: 125 g ai/ha, 0 to 100 scale where 0 is no effect and 100 is complete control; for pest or weed control at 500 g/ha: 500 g ai/ha
[5] = test system: ragweed (common ragweed, Ambrosia elatior); test: Test A preemergence; details: Ambrosia artemisiifolia, pre-emergence, 240 h; for pest or weed control at 500 g/ha: 500 g ai/ha; for pest or weed control at 125 g/ha: 125 g ai/ha, 0 to 100 scale where 0 is no effect and 100 is complete control
Procedure, shortened: as §1

[6] = test system: ryegrass, Italian (Italian ryegrass, Lolium multiflorum); test: Test A preemergence; details: Lolium multiflorum, pre-emergence, 240 h; for pest or weed control at 500 g/ha: 500 g ai/ha; for pest or weed control at 125 g/ha: 125 g ai/ha, 0 to 100 scale where 0 is no effect and 100 is complete control
Procedure, shortened: as §1

[7] = test system: blackgrass (Alopecurus myosuroides); test: Test A postemergence; details: Alopecurus myosuroides, post-emergence, 240 h, 125 g ai/ha
Procedure, shortened: as §1

[8] = test system: corn (Zea mays); test: Test A postemergence; details: Zea mays, post-emergence, 240 h, 125 g ai/ha; for plant injury at 125 g/ha: postemergence, visual injury rating after approximately 10 d, read-out: Corn plant response rating (0 to 100 scale, 0 no effect, 100 complete control)
Procedure, shortened: as §1

[9] = test system: pigweed (Amaranthus retroflexus); test: Test A postemergence; details: Amaranthus retroflexus, post-emergence, 240 h, 125 g ai/ha
Procedure, shortened: as §1

[10] = test system: ragweed (common ragweed, Ambrosia elatior); test: Test A postemergence; details: Ambrosia artemisiifolia, post-emergence, 240 h, 125 g ai/ha
Procedure, shortened: as §1

[11] = test system: ryegrass, Italian (Italian ryegrass, Lolium multiflorum); test: Test A postemergence; details: Lolium multiflorum, post-emergence, 240 h, 125 g ai/ha
Procedure, shortened: as §1

[12] = test system: barnyardgrass (Echinochloa crus-galli); test: Test B flooded paddy test; details: Echinochloa crus-galli, Flood, 250 g ai/ha; scale of 0 to 100 where 0 is no effect and 100 is complete control; read-out: Barnyardgrass plant response rating
Procedure, shortened: (§2)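 Compound goes directly into floodwater once pots are flooded 3 cm above soil, targeting plants at two leaves; the water depth is then held for the test duration. Plants sit 13–15 d in a greenhouse and are rated visually, 100 denoting complete control.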

[13] = test system: ducksalad (Heteranthera limosa); test: Test B flooded paddy test; details: Heteranthera limosa, Flood, 250 g ai/ha; scale of 0 to 100 where 0 is no effect and 100 is complete control; read-out: Ducksalad plant response rating
Procedure, shortened: as §2

[14] = test system: rice (Oryra sativa); test: Test B flooded paddy test; details: Oryza sativa, Flood, 250 g ai/ha; scale of 0 to 100 where 0 is no effect and 100 is complete control; read-out: Rice plant response rating
Procedure, shortened: as §2

[15] = test system: sedge, umbrella (small-flower umbrella sedge, Cyperus difformis); test: Test B flooded paddy test; details: Cyperus difformis, Flood, 250 g ai/ha; scale of 0 to 100 where 0 is no effect and 100 is complete control; read-out: Sedge, Umbrella plant response rating
Procedure, shortened: as §2

[16] = preemergence, read-out: Kochia plant response rating
[17] = preemergence, read-out: Barnyardgrass plant response rating
[18] = preemergence, read-out: Foxtail, Giant plant response rating
[19] = preemergence, read-out: Pigweed plant response rating
[20] = Preemergence, visual injury vs untreated controls after approximately 10 d, read-out: Kochia plant response rating (0 to 100 scale where 0 is no effect and 100 is complete control)
[21] = Preemergence, visual injury vs untreated controls after approximately 10 d, read-out: Barnyardgrass plant response rating (0 to 100 scale where 0 is no effect and 100 is complete control)
[22] = Preemergence, visual injury vs untreated controls after approximately 10 d, read-out: Foxtail, Giant plant response rating (0 to 100 scale where 0 is no effect and 100 is complete control)
[23] = Preemergence, visual injury vs untreated controls after approximately 10 d, read-out: Pigweed plant response rating (0 to 100 scale where 0 is no effect and 100 is complete control)
[24] = preemergence, read-out: Ragweed plant response rating
[25] = Preemergence, visual injury vs untreated controls after approximately 10 d, read-out: Ragweed plant response rating (0 to 100 scale where 0 is no effect and 100 is complete control)
[26] = preemergence, read-out: Ryegrass, Italian plant response rating
[27] = Preemergence, visual injury vs untreated controls after approximately 10 d, read-out: Ryegrass, Italian plant response rating (0 to 100 scale where 0 is no effect and 100 is complete control)
[28] = postemergence, visual injury rating after approximately 10 d, read-out: Blackgrass plant response rating (0 to 100 scale, 0 no effect, 100 complete control)
[29] = postemergence, visual injury rating after approximately 10 d, read-out: Pigweed plant response rating (0 to 100 scale, 0 no effect, 100 complete control)
[30] = postemergence, visual injury rating after approximately 10 d, read-out: Ragweed plant response rating (0 to 100 scale, 0 no effect, 100 complete control)
[31] = postemergence, visual injury rating after approximately 10 d, read-out: Ryegrass, Italian plant response rating (0 to 100 scale, 0 no effect, 100 complete control)

| Structure (SMILES) | pest or weed control at 125 g/ha [1, 16] [%] | pest or weed control at 125 g/ha [2, 17] [%] | pest or weed control at 125 g/ha [3, 18] [%] | pest or weed control at 125 g/ha [4, 19] [%] | pest or weed control at 250 g/ha [12] [%] | pest or weed control at 250 g/ha [13] [%] | pest or weed control at 250 g/ha [14] [%] | pest or weed control at 250 g/ha [15] [%] | pest or weed control at 500 g/ha [1, 20] [%] | pest or weed control at 500 g/ha [2, 21] [%] | pest or weed control at 500 g/ha [3, 22] [%] | pest or weed control at 500 g/ha [4, 23] [%] | pest or weed control at 125 g/ha [5, 24] [%] | pest or weed control at 500 g/ha [5, 25] [%] | pest or weed control at 125 g/ha [6, 26] [%] | pest or weed control at 500 g/ha [6, 27] [%] | pest or weed control at 125 g/ha [7, 28] [%] | plant injury at 125 g/ha [8] [%] | pest or weed control at 125 g/ha [9, 29] [%] | pest or weed control at 125 g/ha [10, 30] [%] | also measured |
| --- | --- | --- | --- | --- | --- | --- | --- | --- | --- | --- | --- | --- | --- | --- | --- | --- | --- | --- | --- | --- | --- |
| Cc1cc([C@H]2CN(C)C(=O)[C@@H]2C(=O)Nc2cccc(F)c2F)ccc1Cl [Compound 929] | 70 | 90 | 90 | 20 | 40 | 60 | 0 | 0 | – | – | – | – | – | – | – | – | – | – | – | – | pest or weed control at 500 g/ha ([1]; preemergence, visual injury rating about 10 d after treatment, 0 to 100 scale (0 no effect, 100 complete control), read-out: Kochia plant response rating): 90%; pest or weed control at 500 g/ha ([2]; preemergence, visual injury rating about 10 d after treatment, 0 to 100 scale (0 no effect, 100 complete control), read-out: Barnyardgrass plant response rating): 90%; pest or weed control at 500 g/ha ([3]; preemergence, visual injury rating about 10 d after treatment, 0 to 100 scale (0 no effect, 100 complete control), read-out: Foxtail, Giant plant response rating): 90%; pest or weed control at 500 g/ha ([4]; preemergence, visual injury rating about 10 d after treatment, 0 to 100 scale (0 no effect, 100 complete control), read-out: Pigweed plant response rating): 50%; pest or weed control at 500 g/ha ([5]; preemergence, visual injury rating about 10 d after treatment, 0 to 100 scale (0 no effect, 100 complete control), read-out: Ragweed plant response rating): 30%; pest or weed control at 500 g/ha ([6]; preemergence, visual injury rating about 10 d after treatment, 0 to 100 scale (0 no effect, 100 complete control), read-out: Ryegrass, Italian plant response rating): 80%; pest or weed control at 125 g/ha ([7]; Postemergence, visual injury after approximately 10 d, 0 to 100 scale where 0 is no effect and 100 is complete control, read-out: Plant response rating, Blackgrass): 40%; Corn plant response rating (crop injury, 0 = no effect, 100 = complete kill) at 125 g/ha ([8]; Postemergence, visual injury after approximately 10 d, 0 to 100 scale where 0 is no effect and 100 is complete control): 40%; pest or weed control at 125 g/ha ([9]; Postemergence, visual injury after approximately 10 d, 0 to 100 scale where 0 is no effect and 100 is complete control, read-out: Plant response rating, Pigweed): 20%; pest or weed control at 125 g/ha ([10]; Postemergence, visual injury after approximately 10 d, 0 to 100 scale where 0 is no effect and 100 is complete control, read-out: Plant response rating, Ragweed): 20%; pest or weed control at 125 g/ha ([11]; Postemergence, visual injury after approximately 10 d, 0 to 100 scale where 0 is no effect and 100 is complete control, read-out: Plant response rating, Ryegrass, Italian): 50% |
| Cc1cc(C)cc([C@H]2CN(C)C(=O)[C@@H]2C(=O)Nc2ccccc2C(F)(F)F)c1 [Compound 912] | 60 | 80 | 90 | 0 | 50 | 50 | 0 | 0 | 70 | 90 | 100 | 0 | 0 | 0 | 40 | 50 | 30 | 30 | 0 | 0 | pest or weed control at 125 g/ha [11, 31]: 20% |
| CN1C[C@H](c2cccc(F)c2)[C@@H](C(=O)Nc2ccccc2F)C1=O [Compound 822] | 70 | 90 | 90 | 0 | 75 | 85 | 0 | 0 | 80 | 100 | 100 | 50 | 0 | 30 | 20 | 40 | 0 | 20 | 0 | 0 | pest or weed control at 125 g/ha [11, 31]: 20% |
